Results as given in the supplement of paper PMC10627819.

Assays:
Assay in all cases: fitness (endpoint OD595 vs no drug) (fraction); higher = more growth
S. pneumoniae D39V = test system: S. pneumoniae D39V
Procedure, shortened: (§1)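 Fitness compares growth at the stationary-phase transition with the robust mean of no-drug control wells, as a ratio of optical densities. The ratio is capped at 1. Wells of 384-well plates held 30 µl, or 55 µl for S. pneumoniae, inoculated at OD595 0.01. Readings at OD595 every 30 min for 14 h at 37 °C were corrected against the first reading.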

B. subtilis 168 = test system: B. subtilis 168
Procedure, shortened: as §1

S. aureus DSM 20231 = test system: S. aureus DSM 20231
Procedure, shortened: as §1

[1] = first compound 0.0475 µg/mL, partner 1.25 µg/mL
[2] = first compound 0.0475 µg/mL, partner 2.5 µg/mL
[3] = first compound 0.095 µg/mL, partner 1.25 µg/mL
[4] = first compound 0.095 µg/mL, partner 2.5 µg/mL
[5] = first compound 0.19 µg/mL, partner 1.25 µg/mL
[6] = first compound 0.19 µg/mL, partner 2.5 µg/mL
[7] = first compound 0.006 µg/mL, partner 1.25 µg/mL, one replicate
[8] = first compound 0.006 µg/mL, partner 2.5 µg/mL, one replicate
[9] = first compound 0.048 µg/mL, partner 1.25 µg/mL
[10] = first compound 0.048 µg/mL, partner 2.5 µg/mL
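Further: OD595 on entry to stationary phase over no-drug wells; at most 1.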

`CN(C)[C@@H]1C(O)=C(C(N)=O)C(=O)[C@@]2(O)C(O)=C3C(=O)c4c(O)ccc(Cl)c4[C@@](C)(O)[C@H]3C[C@@H]12` [Chlortetracycline] + C[n+]1ccc(-c2cc[n+](C)cc2)cc1 [Paraquat] showed a fitness (S. pneumoniae D39V; first compound 0.012 µg/mL, partner 1.5 µg/mL, one replicate) of 0.976, a fitness (S. pneumoniae D39V; first compound 0.012 µg/mL, partner 3 µg/mL, one replicate) of at least 1 and a fitness (S. pneumoniae D39V; first compound 0.012 µg/mL, partner 6 µg/mL, one replicate) of at least 1. It also gave a fitness (S. pneumoniae D39V; first compound 0.024 µg/mL, partner 1.5 µg/mL, one replicate) of 0.941, a fitness (S. pneumoniae D39V; first compound 0.024 µg/mL, partner 3 µg/mL, one replicate) of 0.95 and a fitness (S. pneumoniae D39V; first compound 0.024 µg/mL, partner 6 µg/mL, one replicate) of 0.987. The fitness (S. pneumoniae D39V; first compound 0.048 µg/mL, partner 1.5 µg/mL, one replicate) was 0.852, the fitness (S. pneumoniae D39V; first compound 0.048 µg/mL, partner 3 µg/mL, one replicate) was 0.868 and the fitness (S. pneumoniae D39V; first compound 0.048 µg/mL, partner 6 µg/mL, one replicate) was 0.875. It also gave a fitness (S. pneumoniae D39V; first compound 0.375 µg/mL, partner 1.5 µg/mL) of 0.073, a fitness (S. pneumoniae D39V; first compound 0.375 µg/mL, partner 3 µg/mL) of 0.0531 and a fitness (S. pneumoniae D39V; first compound 0.375 µg/mL, partner 6 µg/mL) of 0.0597. For the same compound, the fitness (S. pneumoniae D39V; first compound 0.75 µg/mL, partner 1.5 µg/mL) was 0.055, the fitness (S. pneumoniae D39V; first compound 0.75 µg/mL, partner 3 µg/mL) was 0.0649 and the fitness (S. pneumoniae D39V; first compound 0.75 µg/mL, partner 6 µg/mL) was 0.0514. It also gave a fitness (S. pneumoniae D39V; first compound 1.5 µg/mL, partner 1.5 µg/mL) of 0.048, a fitness (S. pneumoniae D39V; first compound 1.5 µg/mL, partner 3 µg/mL) of 0.0551 and a fitness (S. pneumoniae D39V; first compound 1.5 µg/mL, partner 6 µg/mL) of 0.0491. It also gave a fitness (B. subtilis 168; [1]) of 0.92, a fitness (B. subtilis 168; [2]) of 0.877 and a fitness (B. subtilis 168; first compound 0.0475 µg/mL, partner 5 µg/mL) of 0.839. The fitness (B. subtilis 168; [3]) was 0.805, the fitness (B. subtilis 168; [4]) was 0.748 and the fitness (B. subtilis 168; first compound 0.095 µg/mL, partner 5 µg/mL) was 0.715. For the same compound, the fitness (B. subtilis 168; [5]) was 0.609, the fitness (B. subtilis 168; [6]) was 0.524 and the fitness (B. subtilis 168; first compound 0.19 µg/mL, partner 5 µg/mL) was 0.429. It also gave a fitness (S. aureus DSM 20231; [7]) of 0.72, a fitness (S. aureus DSM 20231; [8]) of 0.718 and a fitness (S. aureus DSM 20231; first compound 0.006 µg/mL, partner 5 µg/mL, one replicate) of 0.704. It also gave a fitness (S. aureus DSM 20231; first compound 0.012 µg/mL, partner 1.25 µg/mL) of 0.568, a fitness (S. aureus DSM 20231; first compound 0.012 µg/mL, partner 2.5 µg/mL) of 0.597 and a fitness (S. aureus DSM 20231; first compound 0.012 µg/mL, partner 5 µg/mL) of 0.574. The fitness (S. aureus DSM 20231; first compound 0.024 µg/mL, partner 1.25 µg/mL) was 0.266, the fitness (S. aureus DSM 20231; first compound 0.024 µg/mL, partner 2.5 µg/mL) was 0.294 and the fitness (S. aureus DSM 20231; first compound 0.024 µg/mL, partner 5 µg/mL) was 0.261. It also gave a fitness (S. aureus DSM 20231; [9]) of 0.0591, a fitness (S. aureus DSM 20231; [10]) of 0.169 and a fitness (S. aureus DSM 20231; first compound 0.048 µg/mL, partner 5 µg/mL) of 0.0904.
`CN(C)[C@@H]1C(O)=C(C(N)=O)C(=O)[C@@]2(O)C(O)=C3C(=O)c4c(O)ccc(Cl)c4[C@@](C)(O)[C@H]3C[C@@H]12` [Chlortetracycline] + Cc1cc(NS(=O)(=O)c2ccc(N)cc2)no1 [Sulfamethoxazol] gave a fitness (S. pneumoniae D39V; first compound 0.012 µg/mL, partner 1 µg/mL, one replicate) of 0.929, a fitness (S. pneumoniae D39V; first compound 0.012 µg/mL, partner 2 µg/mL, one replicate) of 0.951 and a fitness (S. pneumoniae D39V; first compound 0.012 µg/mL, partner 4 µg/mL, one replicate) of 0.865. It also gave a fitness (S. pneumoniae D39V; first compound 0.024 µg/mL, partner 1 µg/mL, one replicate) of 0.851, a fitness (S. pneumoniae D39V; first compound 0.024 µg/mL, partner 2 µg/mL, one replicate) of 0.88 and a fitness (S. pneumoniae D39V; first compound 0.024 µg/mL, partner 4 µg/mL, one replicate) of 0.806. It also gave a fitness (S. pneumoniae D39V; first compound 0.048 µg/mL, partner 1 µg/mL, one replicate) of 0.793, a fitness (S. pneumoniae D39V; first compound 0.048 µg/mL, partner 2 µg/mL, one replicate) of 0.797 and a fitness (S. pneumoniae D39V; first compound 0.048 µg/mL, partner 4 µg/mL, one replicate) of 0.743. It also gave a fitness (S. pneumoniae D39V; first compound 0.375 µg/mL, partner 1 µg/mL) of 0.0312, a fitness (S. pneumoniae D39V; first compound 0.375 µg/mL, partner 2 µg/mL) of 0.0347 and a fitness (S. pneumoniae D39V; first compound 0.375 µg/mL, partner 4 µg/mL) of 0.0394. For the same compound, the fitness (S. pneumoniae D39V; first compound 0.75 µg/mL, partner 1 µg/mL) was 0.0329, the fitness (S. pneumoniae D39V; first compound 0.75 µg/mL, partner 2 µg/mL) was 0.0284 and the fitness (S. pneumoniae D39V; first compound 0.75 µg/mL, partner 4 µg/mL) was 0.0259. For the same compound, the fitness (S. pneumoniae D39V; first compound 1.5 µg/mL, partner 1 µg/mL) was 0.0307, the fitness (S. pneumoniae D39V; first compound 1.5 µg/mL, partner 2 µg/mL) was 0.0374 and the fitness (S. pneumoniae D39V; first compound 1.5 µg/mL, partner 4 µg/mL) was 0.0403. The fitness (B. subtilis 168; first compound 0.0475 µg/mL, partner 0.5 µg/mL, one replicate) was 0.905, the fitness (B. subtilis 168; first compound 0.0475 µg/mL, partner 1 µg/mL) was 0.9 and the fitness (B. subtilis 168; first compound 0.0475 µg/mL, partner 2 µg/mL) was 0.852. For the same compound, the fitness (B. subtilis 168; first compound 0.0475 µg/mL, partner 4 µg/mL) was 0.907, the fitness (B. subtilis 168; first compound 0.095 µg/mL, partner 0.5 µg/mL, one replicate) was 0.837 and the fitness (B. subtilis 168; first compound 0.095 µg/mL, partner 1 µg/mL) was 0.78. It also gave a fitness (B. subtilis 168; first compound 0.095 µg/mL, partner 2 µg/mL) of 0.725, a fitness (B. subtilis 168; first compound 0.095 µg/mL, partner 4 µg/mL) of 0.779 and a fitness (B. subtilis 168; first compound 0.19 µg/mL, partner 0.5 µg/mL, one replicate) of 0.449. The fitness (B. subtilis 168; first compound 0.19 µg/mL, partner 1 µg/mL) was 0.548, the fitness (B. subtilis 168; first compound 0.19 µg/mL, partner 2 µg/mL) was 0.527 and the fitness (B. subtilis 168; first compound 0.19 µg/mL, partner 4 µg/mL) was 0.5. For the same compound, the fitness (S. aureus DSM 20231; first compound 0.006 µg/mL, partner 1 µg/mL, one replicate) was 0.724, the fitness (S. aureus DSM 20231; first compound 0.006 µg/mL, partner 2 µg/mL, one replicate) was 0.733 and the fitness (S. aureus DSM 20231; first compound 0.006 µg/mL, partner 4 µg/mL, one replicate) was 0.761. For the same compound, the fitness (S. aureus DSM 20231; first compound 0.012 µg/mL, partner 1 µg/mL) was 0.509, the fitness (S. aureus DSM 20231; first compound 0.012 µg/mL, partner 2 µg/mL) was 0.533 and the fitness (S. aureus DSM 20231; first compound 0.012 µg/mL, partner 4 µg/mL) was 0.573. The fitness (S. aureus DSM 20231; first compound 0.024 µg/mL, partner 1 µg/mL) was 0.256, the fitness (S. aureus DSM 20231; first compound 0.024 µg/mL, partner 2 µg/mL) was 0.234 and the fitness (S. aureus DSM 20231; first compound 0.024 µg/mL, partner 4 µg/mL) was 0.264. For the same compound, the fitness (S. aureus DSM 20231; first compound 0.048 µg/mL, partner 1 µg/mL) was 0.0878, the fitness (S. aureus DSM 20231; first compound 0.048 µg/mL, partner 2 µg/mL) was 0.0579 and the fitness (S. aureus DSM 20231; first compound 0.048 µg/mL, partner 4 µg/mL) was 0.059.
For `CN(C)[C@@H]1C(O)=C(C(N)=O)C(=O)[C@@]2(O)C(O)=C3C(=O)c4c(O)ccc(Cl)c4[C@@](C)(O)[C@H]3C[C@@H]12` [Chlortetracycline] + Cc1ncc([N+](=O)[O-])n1CCO [Metronidazole], the fitness (S. pneumoniae D39V; first compound 0.012 µg/mL, partner 1.073 µg/mL) was 0.958, the fitness (S. pneumoniae D39V; first compound 0.012 µg/mL, partner 4.29 µg/mL) was 0.904 and the fitness (S. pneumoniae D39V; first compound 0.024 µg/mL, partner 1.073 µg/mL) was 0.972. The fitness (S. pneumoniae D39V; first compound 0.024 µg/mL, partner 4.29 µg/mL) was 0.916, the fitness (S. pneumoniae D39V; first compound 0.048 µg/mL, partner 1.073 µg/mL) was 0.855 and the fitness (S. pneumoniae D39V; first compound 0.048 µg/mL, partner 2.145 µg/mL) was 0.873. It also gave a fitness (S. pneumoniae D39V; first compound 0.048 µg/mL, partner 4.29 µg/mL) of 0.872, a fitness (S. pneumoniae D39V; first compound 0.375 µg/mL, partner 1.25 µg/mL) of 0.0344 and a fitness (S. pneumoniae D39V; first compound 0.375 µg/mL, partner 2.5 µg/mL) of 0.0383. The fitness (S. pneumoniae D39V; first compound 0.375 µg/mL, partner 5 µg/mL) was 0.0668, the fitness (S. pneumoniae D39V; first compound 0.75 µg/mL, partner 1.25 µg/mL) was 0.0404 and the fitness (S. pneumoniae D39V; first compound 0.75 µg/mL, partner 2.5 µg/mL) was 0.045. It also gave a fitness (S. pneumoniae D39V; first compound 0.75 µg/mL, partner 5 µg/mL) of 0.0953, a fitness (S. pneumoniae D39V; first compound 1.5 µg/mL, partner 1.25 µg/mL) of 0.0574 and a fitness (S. pneumoniae D39V; first compound 1.5 µg/mL, partner 2.5 µg/mL) of 0.0668. It also gave a fitness (S. pneumoniae D39V; first compound 1.5 µg/mL, partner 5 µg/mL) of 0.0748, a fitness (B. subtilis 168; first compound 0.0475 µg/mL, partner 0.625 µg/mL) of 0.978 and a fitness (B. subtilis 168; [1]) of 0.925. The fitness (B. subtilis 168; [2]) was 0.959, the fitness (B. subtilis 168; first compound 0.095 µg/mL, partner 0.625 µg/mL) was 0.888 and the fitness (B. subtilis 168; [3]) was 0.789. The fitness (B. subtilis 168; [4]) was 0.822, the fitness (B. subtilis 168; first compound 0.19 µg/mL, partner 0.625 µg/mL) was 0.619 and the fitness (B. subtilis 168; [5]) was 0.586. For the same compound, the fitness (B. subtilis 168; [6]) was 0.536, the fitness (S. aureus DSM 20231; first compound 0.006 µg/mL, partner 0.625 µg/mL, one replicate) was 0.807 and the fitness (S. aureus DSM 20231; [7]) was 0.8. For the same compound, the fitness (S. aureus DSM 20231; [8]) was 0.833, the fitness (S. aureus DSM 20231; first compound 0.048 µg/mL, partner 0.625 µg/mL) was 0.196 and the fitness (S. aureus DSM 20231; [9]) was 0.144. The fitness (S. aureus DSM 20231; [10]) was 0.124.
